Measurements: US6699989B1, “Antiviral and antimicrobial guanidine or biguanidine derivatives” (priority 2000, dated 2004)
≈ marks a conversion by molar mass, not a printed value. Entries after “also recorded” stand apart in the source; their conditions may differ. Like-named read-outs stand apart in the source and are kept apart here.

Experiments:
[1] = tested on: HIV-1; experiment: microbe, parasite or virus in culture; conditions: Human immunodeficiency virus 1, CEM-SS
Protocol: (§3) This is a cytoprotection assay that uses the T-lymphoblastoid tumor cell line CEM-SS and laboratory adapted strains of HIV-1. Upon infection with HIV, the CEM-SS cells form syncytia and eventually die, producing large amounts of progeny virus over the course of 4-6 days at the standard multiplicity of infection (0.01). The antiviral assay measures the ability of a given compound to inhibit the HIV-induced cell killing. […] The activity of the compound is evaluated by measuring cell viability at 6 days post-infection and comparing the viability to that obtained in cell control (cells only), virus control (cells and virus only) and toxicity control (cells and compound only) wells.
(§4) Efficacy of the compound in cell culture is measured by increased cell viability in CEM-SS assays or reduction in virus production in PBMC assays. The data obtained yields a dose response curve which can be evaluated to determine doses which yield 25%, 50% and 95% protection from HIV-induced cell killing or virus production. […] These concentrations are reported as the TC25, TC50 and TC95 values. The ratio of toxicity to efficacy constitutes the therapeutic index TC50/IC50.
(§5) CEM-SS cells assay measures the ability of the compound to inhibit HIV induced cell killing. The cells are stained at 6 days post-infection with the tetrazolium dye XTT which is converted to a colored formazan product by the mitochondria of viable cells. Protection from cell killing afforded by the test compound is measured by comparison to both cell controls and virus controls. Cell killing in this system is directly related to the amount of virus produced by the infected cells and XTT-formazan production is proportional to the number of viable cells in each well. Toxicity of the compound to the target cells is measured in parallel.
(§6) CEM-SS cells (or other established human cell line used in these experiments) were passaged in T-150 flasks for use in the assay. On the day preceding the assay, the cells were split 1:2 to assure they would be in an exponential growth phase at time of infection. On the day of assay the cells were washed twice with tissue culture medium and resuspended in fresh tissue culture medium. Total cell and viability counting was performed using hemacytometer and trypan blue dye exclusion. Cell viability was greater than 95% for the cells to be utilized in the assay. The cells were pelleted and resuspended at 2.5×10^4 cells per ml in tissue culture medium. Cells were added to the drug-containing plates in a volume of 50 μl.
(§7) A pretitered aliquot of virus was removed from the freezer (−80° C.) and allowed to thaw slowly to room temperature in a biological safety cabinet. The virus was resuspended and diluted into tissue culture medium such that the amount of virus added to each well in a volume of 50 μl will be the amount determined to give complete cell killing at 6 days post-infection. In general the virus pools produced with the IIIB isolate of HIV required the addition of 5 μl of virus per well.
(§8) Each plate contained cell control wells (cells only), virus control wells (cells plus virus), drug toxicity control wells (cells plus drug only), drug colorimetric control wells (drug only) as well as experimental wells (drug plus cells plus virus).
(§9) After 6 days of incubation at 37° C. in a 5% CO2 incubator the test plates were analyzed by staining with the tetrazolium dye XTT. XTT-tetrazolium is metabolized by the mitochondrial enzymes of metabolically active cells to a soluble formazan product, allowing the rapid quantitative analysis of the inhibition of HIV-induced cell killing by anti-HIV test substances. On day 6 post-infection plates were removed from the incubator and observed.

[2] = tested on: HIV-1
Protocol: as §3, §4, §5, §6, §7, §8, §9

[3] = tested on: Proteus mirabilis ATCC 9921; experiment: Microdilution broth MIC assay; format: cell-based; conditions: ATCC9921, Pm, Mueller Hinton broth, about 17 hr
Protocol: (§1) Test organisms. The test organisms are listed in Table 5 along with their source. Prior to assay, overnight bacterial slant cultures were used to inoculate Mueller Hinton broth followed by incubation for 5-7 hr. Each culture was then standardized turbidimetrically to a viable count of about 10^6 colony forming units/ml and used to inoculate the mirotiter assay plates. The viable count after addition to the plates was about 5×10^5 CFU/ml.
(§2) Experimental design. The MIC of the test compounds for the bacterial strains was determined with a microdilution broth assay in 96 well microtiter plates. The test compounds were dissolved in DMSO and then diluted 10-fold in assay medium (Mueller Hinton broth) to obtain final concentrations of 0.128, 1.28, 12.8, and 128 μg/ml. A viability control containing DMSO, diluted in the same manner as the test compounds, was used to confirm that the DMSO was not inhibitory by itself. Trimethoprim (TMP) was used as a positive drug control. The assay plates were incubated at 37° C. for about 17 hr and each assay well observed visually for growth. The MIC was determined at the lowest concentration of drug which inhibited growth. [drawing 32]

[4] = tested on: Staphylococcus epidermidis ATCC 35984; experiment: Microdilution broth MIC assay; format: cell-based; conditions: ATCC35984, Se, Mueller Hinton broth, about 17 hr
Protocol: as §1, §2

[5] = tested on: Pseudomonas aeruginosa ATCC 15442; experiment: Microdilution broth MIC assay; format: cell-based; conditions: ATCC15442, Pa, Mueller Hinton broth, about 17 hr
Protocol: as §1, §2

[6] = tested on: Streptococcus pneumoniae ATCC 6303; experiment: Microdilution broth MIC assay; format: cell-based; conditions: ATCC6303, Sp, Mueller Hinton broth, about 17 hr
Protocol: as §1, §2

[7] = tested on: Staphylococcus aureus ATCC 6538; experiment: Microdilution broth MIC assay; format: cell-based; conditions: ATCC6538, Sa, Mueller Hinton broth, about 17 hr
Protocol: as §1, §2

[8] = tested on: Escherichia coli ATCC 11229; experiment: Microdilution broth MIC assay; format: cell-based; conditions: ATCC11229, Ec, Mueller Hinton broth, about 17 hr
Protocol: as §1, §2

[9] = tested on: Klebsiella pneumoniae ATCC 4352; experiment: Microdilution broth MIC assay; format: cell-based; conditions: ATCC4352, Kp, Mueller Hinton broth, about 17 hr
Protocol: as §1, §2

[10] = tested on: PBMCs; experiment: Toxicity to PBMC, XTT; format: cell-based, human
[11] = tested on: CEM-SS cells; format: cell-based

N=C(NCCCCCCNC(=N)NC(=N)N1CCN(c2cc3c(cc2F)c(=O)c(C(=O)O)cn3C2CC2)CC1)NC(=N)N1CCN(c2cc3c(cc2F)c(=O)c(C(=O)O)cn3C2CC2)CC1 [BVS-10A]
IC50 [1]: 16.6 µg/mL (≈ 18.2 µM) | IC50 ([1]; read-out: 50% inhibition of cell killing): 12 µg/mL (≈ 13.1 µM) | IC50 ([1]; read-out: calculated IC50): 16.6 µg/mL (≈ 18.2 µM) | % RED. IN VIRAL CPE ([2]; 0.00032 uG/mL, CEM-SS, HIV1 RF): 3% | ANTIVIRAL TEST VALUES MEAN O.D. ([2]; 0.00032 uG/mL, CEM-SS, HIV1 RF): 0.038 O.D. | % RED. IN VIRAL CPE ([2]; 0.001 uG/mL, CEM-SS, HIV1 RF): 4% | ANTIVIRAL TEST VALUES MEAN O.D. ([2]; 0.001 uG/mL, CEM-SS, HIV1 RF): 0.049 O.D. | % RED. IN VIRAL CPE ([2]; 0.0032 uG/mL, CEM-SS, HIV1 RF): 1% | ANTIVIRAL TEST VALUES MEAN O.D. ([2]; 0.0032 uG/mL, CEM-SS, HIV1 RF): 0.009 O.D. | % RED. IN VIRAL CPE ([2]; 0.01 uG/mL, CEM-SS, HIV1 RF): 4% | ANTIVIRAL TEST VALUES MEAN O.D. ([2]; 0.01 uG/mL, CEM-SS, HIV1 RF): 0.042 O.D. | % RED. IN VIRAL CPE ([2]; 0.032 uG/mL, CEM-SS, HIV1 RF): 7% | ANTIVIRAL TEST VALUES MEAN O.D. ([2]; 0.032 uG/mL, CEM-SS, HIV1 RF): 0.083 O.D. | % RED. IN VIRAL CPE ([2]; 0.1 uG/mL, CEM-SS, HIV1 RF): 2% | ANTIVIRAL TEST VALUES MEAN O.D. ([2]; 0.1 uG/mL, CEM-SS, HIV1 RF): 0.021 O.D. | % RED. IN VIRAL CPE ([2]; 0.32 uG/mL, CEM-SS, HIV1 RF): 4% | ANTIVIRAL TEST VALUES MEAN O.D. ([2]; 0.32 uG/mL, CEM-SS, HIV1 RF): 0.051 O.D. | % RED. IN VIRAL CPE ([2]; 1 uG/mL, CEM-SS, HIV1 RF): 9% | ANTIVIRAL TEST VALUES MEAN O.D. ([2]; 1 uG/mL, CEM-SS, HIV1 RF): 0.103 O.D. | % RED. IN VIRAL CPE ([2]; 3.2 uG/mL, CEM-SS, HIV1 RF): 2% | ANTIVIRAL TEST VALUES MEAN O.D. ([2]; 3.2 uG/mL, CEM-SS, HIV1 RF): 0.025 O.D. | % RED. IN VIRAL CPE ([2]; 10 uG/mL, CEM-SS, HIV1 RF): 11% | ANTIVIRAL TEST VALUES MEAN O.D. ([2]; 10 uG/mL, CEM-SS, HIV1 RF): 0.123 O.D. | % RED. IN VIRAL CPE ([2]; 32 uG/mL, CEM-SS, HIV1 RF): 100% | ANTIVIRAL TEST VALUES MEAN O.D. ([2]; 32 uG/mL, CEM-SS, HIV1 RF): 1.515 O.D. | % RED. IN VIRAL CPE ([2]; 32 uG/mL, CEM-SS, HIV1 RF, listed as BVS10A): 100% | % RED. IN VIRAL CPE ([2]; 100 uG/mL, CEM-SS, HIV1 RF): 100% | ANTIVIRAL TEST VALUES MEAN O.D. ([2]; 100 uG/mL, CEM-SS, HIV1 RF): 1.717 O.D. | % RED. IN VIRAL CPE ([2]; 100 uG/mL, CEM-SS, HIV1 RF, listed as BVS10A): 100% | IC95 ([2]; CEM-SS cells): 30 µg/mL (≈ 32.9 µM) | IC 25% ([2]; CEM-SS, HIV1 RF): 12.00 UG/mL | IC 95% ([2]; CEM-SS, HIV1 RF): 30.00 UG/mL | MIC [3]: 0.128 to 1.28 µg/mL (≈ 0.14 to 1.4 µM) | MIC [4]: < 0.128 µg/mL | MIC [5]: 1.28 to 12.8 µg/mL (≈ 1.4 to 14 µM) | MIC [6]: 1.28 to 12.8 µg/mL (≈ 1.4 to 14 µM) | MIC [7]: < 0.128 µg/mL | MIC [8]: 0.128 to 1.28 µg/mL (≈ 0.14 to 1.4 µM) | MIC [9]: < 0.128 µg/mL | TOXICITY % CC ([10]; 0.01 μg/ml, PBMC): 103.2% | TOXICITY VALUES (XTT O.D. @ 450/650 nm) MEAN ([10]; 0.01 μg/ml, PBMC): 3.415 O.D. | TOXICITY % CC ([10]; 0.032 μg/ml, PBMC): 103.6% | TOXICITY VALUES (XTT O.D. @ 450/650 nm) MEAN ([10]; 0.032 μg/ml, PBMC): 3.426 O.D. | TOXICITY % CC ([10]; 0.1 μg/ml, PBMC): 97.1% | TOXICITY VALUES (XTT O.D. @ 450/650 nm) MEAN ([10]; 0.1 μg/ml, PBMC): 3.214 O.D. | TOXICITY % CC ([10]; 0.32 μg/ml, PBMC): 100.9% | TOXICITY VALUES (XTT O.D. @ 450/650 nm) MEAN ([10]; 0.32 μg/ml, PBMC): 3.339 O.D. | TOXICITY % CC ([10]; 1 μg/ml, PBMC): 96.2% | TOXICITY VALUES (XTT O.D. @ 450/650 nm) MEAN ([10]; 1 μg/ml, PBMC): 3.181 O.D. | TOXICITY % CC ([10]; 3.2 μg/ml, PBMC): 103.5% | TOXICITY VALUES (XTT O.D. @ 450/650 nm) MEAN ([10]; 3.2 μg/ml, PBMC): 3.424 O.D. | TOXICITY % CC ([10]; 10 μg/ml, PBMC): 108.3% | TOXICITY VALUES (XTT O.D. @ 450/650 nm) MEAN ([10]; 10 μg/ml, PBMC): 3.583 O.D. | TOXICITY % CC ([10]; 32 μg/ml, PBMC): 97.3% | TOXICITY VALUES (XTT O.D. @ 450/650 nm) MEAN ([10]; 32 μg/ml, PBMC): 3.220 O.D. | TOXICITY % CC ([10]; 100 μg/ml, PBMC): 51.2% | TOXICITY VALUES (XTT O.D. @ 450/650 nm) MEAN ([10]; 100 μg/ml, PBMC): 1.695 O.D. | 50% inhibition of cell growth ([10]; PBMC cultures): approximately 100 μg/mL | TC50 ([10]; PBMC, XTT): TC50 (μg/ml) = >100 | toxicity in PBMCs ([10]; at 100 μg/mL): Toxicity was detected | % CELL VIABILITY ([11]; 0.00032 uG/mL, CEM-SS): 100% | CYTOTOXICITY TEST VALUES MEAN O.D. ([11]; 0.00032 uG/mL, CEM-SS): 1.317 O.D. | % CELL VIABILITY ([11]; 0.001 uG/mL, CEM-SS): 100% | CYTOTOXICITY TEST VALUES MEAN O.D. ([11]; 0.001 uG/mL, CEM-SS): 1.323 O.D. | % CELL VIABILITY ([11]; 0.0032 uG/mL, CEM-SS): 100% | CYTOTOXICITY TEST VALUES MEAN O.D. ([11]; 0.0032 uG/mL, CEM-SS): 1.307 O.D. | % CELL VIABILITY ([11]; 0.01 uG/mL, CEM-SS): 100% | CYTOTOXICITY TEST VALUES MEAN O.D. ([11]; 0.01 uG/mL, CEM-SS): 1.364 O.D. | % CELL VIABILITY ([11]; 0.032 uG/mL, CEM-SS): 100% | CYTOTOXICITY TEST VALUES MEAN O.D. ([11]; 0.032 uG/mL, CEM-SS): 1.339 O.D. | % CELL VIABILITY ([11]; 0.1 uG/mL, CEM-SS): 100% | CYTOTOXICITY TEST VALUES MEAN O.D. ([11]; 0.1 uG/mL, CEM-SS): 1.369 O.D. | % CELL VIABILITY ([11]; 0.32 uG/mL, CEM-SS): 100% | CYTOTOXICITY TEST VALUES MEAN O.D. ([11]; 0.32 uG/mL, CEM-SS): 1.385 O.D. | % CELL VIABILITY ([11]; 1 uG/mL, CEM-SS): 100% | CYTOTOXICITY TEST VALUES MEAN O.D. ([11]; 1 uG/mL, CEM-SS): 1.512 O.D. | % CELL VIABILITY ([11]; 3.2 uG/mL, CEM-SS): 100% | CYTOTOXICITY TEST VALUES MEAN O.D. ([11]; 3.2 uG/mL, CEM-SS): 1.556 O.D. | % CELL VIABILITY ([11]; 10 uG/mL, CEM-SS): 100% | CYTOTOXICITY TEST VALUES MEAN O.D. ([11]; 10 uG/mL, CEM-SS): 1.804 O.D. | % CELL VIABILITY ([11]; 32 uG/mL, CEM-SS): 100% | CYTOTOXICITY TEST VALUES MEAN O.D. ([11]; 32 uG/mL, CEM-SS): 2.390 O.D. | % CELL VIABILITY ([11]; 100 uG/mL, CEM-SS): 100% | CYTOTOXICITY TEST VALUES MEAN O.D. ([11]; 100 uG/mL, CEM-SS): 1.797 O.D. | TC 25% ([11]; CEM-SS, XTT): >100.00 UG/mL | TC 50% ([11]; CEM-SS, XTT): >100.00 UG/mL | TC 95% ([11]; CEM-SS, XTT): >100.00 UG/mL | toxicity in CEM-SS cells ([11]; at concentrations up to 100 μg/mL): nontoxic; also recorded: No toxicity
